In patent publication US12577213B2 (NINGBO COMBIREG PHARMACEUTICAL TECHNOLOGY CO., LTD., priority 2020, dated 2026):

Assays:
[1] = tested on: A549 (non-small cell lung cancer); experiment: NCI method SRB growth inhibition, A549; type: cell-based; conditions: Homo sapiens; A549, treated 48 hours, SRB stain
Procedure, shortened: (§1)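 Cells were exposed to compound for 48 h, with a parallel plate fixed at the time of dosing (Tz) and a vehicle control (C). SRB staining was read at OD 515 nm. GI50 is the concentration at 50% growth relative to C−Tz, TGI is where Ti=Tz, and LC50 is −50% relative to Tz.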

[2] = tested on: HCT116 (colon cancer); experiment: NCI method SRB growth inhibition, HCT116; type: cell-based; conditions: Homo sapiens, HCT-116; HCT116, treated 48 hours, SRB stain
Procedure, shortened: as §1

[3] = tested on: K562 (leukemia); experiment: NCI method SRB growth inhibition, K562; type: cell-based; conditions: Homo sapiens; K562, treated 48 hours, SRB stain
Procedure, shortened: as §1

[4] = tested on: HS 578T (breast cancer); experiment: NCI method SRB growth inhibition, HS 578T; type: cell-based; conditions: Homo sapiens, HS578T, treated 48 hours, SRB stain
Procedure, shortened: as §1

[5] = Metabolic stability in vivo (plasma half-life after IV); conditions: mouse, plasma, iv; intravenously at 1 mg/kg, male BALB/c nude mice; read-out: T½ of (IV in nude mice) (converted)
Description: The intravenous injection group of the embodiment compound was prepared with the mixed solvent of DMA:PEG400:30% SBECD=5:25:70 to form a 0.2 mg/mL of solution, and administered intravenously at 1 mg/kg of weight; and the oral preparation group was prepared with 0.5% MC to form a 1 mg/mL of solution, and administered by oral gavage at 10 mg/kg weight.
• Male BALB/c nude mice, 4-5 weeks old, purchased from Shanghai SLAC. 3. Experiment Method: 3.1 Instruments: • Liquid chromatography system: Shimadzu liquid chromatography system Shimadzu LC-30AD • MS/MS system: Applied Biosystems API5500 • Data collection: Analyst Software 1.5.2 3.2 Chromatographic Conditions Chromatographic Column • Analytical column: Kinetex 2.6u C18 100 A column (3.0 mm×30 mm) • Mobile phase: A: 10 mM NH4OAc (0.1% FA); B: Acetonitrile with 0.1% […] • Flow rate: 1.0 mL/min
Ion source was an electron spray ionization (ESI source) with negative ion detection; spray voltage source was 5500 V; ion source gas 1 (N2) was 50 psi; ion source gas 2 (N2) was 50 psi; air curtain gas (N2) was 30 psi. Scanning mode was multiple reaction monitoring (MRM); scanning time was 80 ms; collision gas pressure was 10 psi;
Grouping experiment, with three animals in each group, starting from now on, administration was started according to the weight of the animals. Blood was collected according to 5 min, 15 min, 30 min, 1 h, 2 h, 4 h, 8 h and 24 h after administration.
To 25.0 μL of plasma, 25.0 μL of internal standard solution (Tolbutamide (250 ng/mL) in acetonitrile), 25.0 μL of acetonitrile and 100 μL of acetonitrile were added, and the mixture was vortexed for 1 min, and centrifuged for 5 min (14000 rpm). 120 μL of the resulting supernatant was added with 80.0 μL of water (containing 1% formic acid) and mixed well, then analyzed by LC/MS/MS.

[6] = tested on: breast cancer cell line SUM159 sphere; experiment: Breast cancer stem cell sphere formation; type: cell-based, human; conditions: 50 nM; for formation of the sphere after cell passage: 5 days of drug treatment, then passage
Description: The inhibitory effects of embodiment compounds 5, 7, 11, 13, 14, 20 and 21 on the formation of breast cancer cell line SUM159 sphere are described as follows.
The breast cancer cell line SUM159 sphere was cultured with serum-free medium in an ultra-low adsorption plate, the basal medium was DMEM/F12 (without phenol red), and B27 (without vitamin A) (1×), EGF (20 ng/ml), bFGF (20 ng/ml) and insulin (insulin, 5 ug/ml) were added.
An equal number (4000) of SUM159 cells per well were inoculated into an ultra-low adsorption 24 plate, and the sphere was photographed after 5 days of culture, replaced with fresh medium, and treated with drugs at certain concentrations, respectively. Compounds 5, 7, 11, 13, 14, 20 and 21 were evaluated in this experiment at 50 nM, respectively. The effect of the drug on the sphere phenotype could be observed after about 3 days of drug treatment. The sphere was photographed again after 5 days of drug treatment, and then the sphere was passaged. The sphere was photographed again after 7 days of passage.
The differences of the photographs taken in three different stages were counted and compared, and the killing effect of the tested compounds on SUM159 sphere was evaluated through the differences of sphere formation after passage, thus reflecting the inhibitory effects of different compounds on breast cancer stem cells.

With `[2H]C([2H])([2H])Oc1cc(C(=O)Nc2cc3c(cc2Oc2cc(C)cc(C)c2)C(=O)N[C@@H](CC(=O)N(C([2H])([2H])C([2H])([2H])[2H])C([2H])([2H])C([2H])([2H])[2H])C(=O)N3)c(Br)c(OC([2H])([2H])[2H])c1OC([2H])([2H])[2H]` [Compound 5, (S)-2-bromo-N-[3-[2-[bis(pentadeuteroethyl)amino]-2-oxoethyl]-7-(3,5-dimethylphenoxy)-2,5-dioxo-2,3,4,5-tetrahydro-1H-benzo[e][1,4]diazepin-8-yl]-3,4,5-tris(trideuteromethoxy)benzamide] the GI50 [1] was < 5 nM, the GI50 [2] was < 5 nM and the GI50 [3] was < 5 nM. For the same compound, the GI50 [4] was < 5 nM, the half-life [5] was 91.2 min and the “killing effect on SUM159 sphere” value [6] was “strong killing effect”. The “formation of the sphere after cell passage” value [6] was “significantly reduced”.
In the case of `[2H]C([2H])([2H])Oc1cc(C(=O)Nc2cc3c(cc2Oc2cc(C)cc(C)c2)C(=O)N(C)[C@@H](CC(=O)N(C)C)C(=O)N3)c(Br)c(OC([2H])([2H])[2H])c1OC([2H])([2H])[2H]` [Compound 16, (S)-2-bromo-N-[3-[2-(dimethylamino)-2-oxoethyl]-7-(3,5-dimethylphenoxy)-4-methyl-2,5-dioxo-2,3,4,5-tetrahydro-1H-benzo[e][1,4]diazepin-8-yl]-3,4,5-tris(trideuteromethoxy)benzamide], the GI50 [1] is reported as < 5 nM, the GI50 [2] is reported as < 5 nM and the GI50 [3] is reported as < 5 nM. The GI50 [4] was < 5 nM and the half-life [5] was 35.1 min.
With `[2H]C([2H])([2H])Oc1cc(C(=O)Nc2cc3c(cc2Oc2cc(C)cc(C)c2)C(=O)N[C@@H](CC(=O)N(C)C)C(=O)N3)c(Br)c(OC([2H])([2H])[2H])c1OC([2H])([2H])[2H]` [Compound 20, (S)-2-bromo-N-[3-[2-(dimethylamino)-2-oxoethyl]-7-(3,5-dimethylphenoxy)-2,5-dioxo-2,3,4,5-tetrahydro-1H-benzo[e][1,4]diazepin-8-yl]-3,4,5-tris(trideuteromethoxy)benzamide] the GI50 [1] was < 5 nM, the GI50 [2] was < 5 nM and the GI50 [3] was < 5 nM. The GI50 [4] was < 5 nM, the half-life [5] was 48 min and the “killing effect on SUM159 sphere” value [6] was “strong killing effect”. The “formation of the sphere after cell passage” value [6] was “significantly reduced”.
